# Numbers after ± are expanded uncertainties.
# Assay: xn = mol fraction of the nth substance listed
# Details: 100 kPa, Liquid; for mass density: Vibrating tube method; for viscosity: Capillary tube (Ostwald / Ubbelohde) method
smiles,measurement,setting,value
O=C1CCCO1 [γ-butyrolactone] + C[S+](C)[O-],mass density,"293.15 K, x2 = 0",1129.4 ± 1 kg/m3
same,mass density,"293.15 K, x2 = 0.051",1127.5 ± 1.1 kg/m3
same,mass density,"293.15 K, x2 = 0.098",1125.9 ± 1.1 kg/m3
same,mass density,"293.15 K, x2 = 0.152",1124 ± 1.1 kg/m3
same,mass density,"293.15 K, x2 = 0.221",1121.7 ± 1.1 kg/m3
same,mass density,"293.15 K, x2 = 0.251",1120.7 ± 1.1 kg/m3
same,mass density,"293.15 K, x2 = 0.298",1119.1 ± 1.1 kg/m3
same,mass density,"293.15 K, x2 = 0.352",1117.4 ± 1.1 kg/m3
same,mass density,"293.15 K, x2 = 0.398",1116 ± 1.1 kg/m3
same,mass density,"293.15 K, x2 = 0.447",1114.5 ± 1.1 kg/m3
same,mass density,"293.15 K, x2 = 0.498",1113 ± 1 kg/m3
same,mass density,"293.15 K, x2 = 0.546",1111.6 ± 1 kg/m3
same,mass density,"293.15 K, x2 = 0.596",1110.2 ± 1 kg/m3
same,mass density,"293.15 K, x2 = 0.648",1108.7 ± 1 kg/m3
same,mass density,"293.15 K, x2 = 0.7",1107.4 ± 1 kg/m3
same,mass density,"293.15 K, x2 = 0.742",1106.3 ± 1 kg/m3
same,mass density,"293.15 K, x2 = 0.797",1104.9 ± 1 kg/m3
same,mass density,"293.15 K, x2 = 0.848",1103.6 ± 1 kg/m3
same,mass density,"293.15 K, x2 = 0.9",1102.4 ± 1 kg/m3
same,mass density,"293.15 K, x2 = 0.95",1101.3 ± 1 kg/m3
same,viscosity,"298.15 K, x2 = 0",1.72 ± 0.024 mPa·s
same,viscosity,"298.15 K, x2 = 0.098",1.724 ± 0.024 mPa·s
same,viscosity,"298.15 K, x2 = 0.221",1.724 ± 0.024 mPa·s
same,viscosity,"298.15 K, x2 = 0.298",1.724 ± 0.024 mPa·s
same,viscosity,"298.15 K, x2 = 0.398",1.739 ± 0.024 mPa·s
same,viscosity,"298.15 K, x2 = 0.498",1.763 ± 0.024 mPa·s
same,viscosity,"298.15 K, x2 = 0.596",1.791 ± 0.024 mPa·s
same,viscosity,"298.15 K, x2 = 0.7",1.839 ± 0.024 mPa·s
same,viscosity,"298.15 K, x2 = 0.797",1.883 ± 0.025 mPa·s
same,viscosity,"298.15 K, x2 = 0.9",1.921 ± 0.025 mPa·s
same,mass density,"298.15 K, x2 = 0",1124.5 ± 1 kg/m3
same,mass density,"298.15 K, x2 = 0.051",1122.6 ± 1.1 kg/m3
same,mass density,"298.15 K, x2 = 0.098",1121 ± 1.1 kg/m3
same,mass density,"298.15 K, x2 = 0.152",1119.1 ± 1.1 kg/m3
same,mass density,"298.15 K, x2 = 0.221",1116.8 ± 1.1 kg/m3
same,mass density,"298.15 K, x2 = 0.251",1115.7 ± 1.1 kg/m3
same,mass density,"298.15 K, x2 = 0.298",1114.2 ± 1.1 kg/m3
same,mass density,"298.15 K, x2 = 0.352",1112.5 ± 1.1 kg/m3
same,mass density,"298.15 K, x2 = 0.398",1111 ± 1.1 kg/m3
same,mass density,"298.15 K, x2 = 0.447",1109.6 ± 1 kg/m3
same,mass density,"298.15 K, x2 = 0.498",1108 ± 1 kg/m3
same,mass density,"298.15 K, x2 = 0.546",1106.6 ± 1 kg/m3
same,mass density,"298.15 K, x2 = 0.596",1105.2 ± 1 kg/m3
same,mass density,"298.15 K, x2 = 0.648",1103.8 ± 1 kg/m3
same,mass density,"298.15 K, x2 = 0.7",1102.4 ± 1 kg/m3
same,mass density,"298.15 K, x2 = 0.742",1101.3 ± 1 kg/m3
same,mass density,"298.15 K, x2 = 0.797",1099.9 ± 1 kg/m3
same,mass density,"298.15 K, x2 = 0.848",1098.7 ± 1 kg/m3
same,mass density,"298.15 K, x2 = 0.9",1097.4 ± 1 kg/m3
same,mass density,"298.15 K, x2 = 0.95",1096.3 ± 1 kg/m3
same,mass density,"303.15 K, x2 = 0",1119.6 ± 1 kg/m3
same,mass density,"303.15 K, x2 = 0.051",1117.7 ± 1.1 kg/m3
same,mass density,"303.15 K, x2 = 0.098",1116.1 ± 1.1 kg/m3
same,mass density,"303.15 K, x2 = 0.152",1114.2 ± 1.1 kg/m3
same,mass density,"303.15 K, x2 = 0.221",1111.9 ± 1.1 kg/m3
same,mass density,"303.15 K, x2 = 0.251",1110.8 ± 1.1 kg/m3
same,mass density,"303.15 K, x2 = 0.298",1109.3 ± 1.1 kg/m3
same,mass density,"303.15 K, x2 = 0.352",1107.6 ± 1.1 kg/m3
same,mass density,"303.15 K, x2 = 0.398",1106.1 ± 1 kg/m3
same,mass density,"303.15 K, x2 = 0.447",1104.7 ± 1 kg/m3
same,mass density,"303.15 K, x2 = 0.498",1103.1 ± 1 kg/m3
same,mass density,"303.15 K, x2 = 0.546",1101.7 ± 1 kg/m3
same,mass density,"303.15 K, x2 = 0.596",1100.3 ± 1 kg/m3
same,mass density,"303.15 K, x2 = 0.648",1098.8 ± 1 kg/m3
same,mass density,"303.15 K, x2 = 0.7",1097.4 ± 1 kg/m3
same,mass density,"303.15 K, x2 = 0.742",1096.4 ± 1 kg/m3
same,mass density,"303.15 K, x2 = 0.797",1094.9 ± 1 kg/m3
same,mass density,"303.15 K, x2 = 0.848",1093.7 ± 1 kg/m3
same,mass density,"303.15 K, x2 = 0.9",1092.4 ± 1 kg/m3
same,mass density,"303.15 K, x2 = 0.95",1091.3 ± 1 kg/m3
same,mass density,"313.15 K, x2 = 0",1109.8 ± 1 kg/m3
same,mass density,"313.15 K, x2 = 0.051",1107.9 ± 1.1 kg/m3
same,mass density,"313.15 K, x2 = 0.098",1106.3 ± 1.1 kg/m3
same,mass density,"313.15 K, x2 = 0.152",1104.4 ± 1.1 kg/m3
same,mass density,"313.15 K, x2 = 0.221",1102.1 ± 1.1 kg/m3
same,mass density,"313.15 K, x2 = 0.251",1101 ± 1 kg/m3
same,mass density,"313.15 K, x2 = 0.298",1099.5 ± 1 kg/m3
same,mass density,"313.15 K, x2 = 0.352",1097.8 ± 1 kg/m3
same,mass density,"313.15 K, x2 = 0.398",1096.3 ± 1 kg/m3
same,mass density,"313.15 K, x2 = 0.447",1094.8 ± 1 kg/m3
same,mass density,"313.15 K, x2 = 0.498",1093.3 ± 1 kg/m3
same,mass density,"313.15 K, x2 = 0.546",1091.9 ± 1 kg/m3
same,mass density,"313.15 K, x2 = 0.596",1090.4 ± 1 kg/m3
same,mass density,"313.15 K, x2 = 0.648",1089 ± 1 kg/m3
same,mass density,"313.15 K, x2 = 0.7",1087.6 ± 1 kg/m3
same,mass density,"313.15 K, x2 = 0.742",1086.4 ± 1 kg/m3
same,mass density,"313.15 K, x2 = 0.797",1085 ± 1 kg/m3
same,mass density,"313.15 K, x2 = 0.848",1083.7 ± 1 kg/m3
same,mass density,"313.15 K, x2 = 0.9",1082.5 ± 1 kg/m3
same,mass density,"313.15 K, x2 = 0.95",1081.3 ± 1 kg/m3

# — the NIST ThermoML archive (doi:10.1016/j.jct.2017.02.009)
